According to patent US8202687B2, “Method for transporting potassium ions from front side to back side of lipid bilayer membrane” (Panasonic Corporation, priority 2010, dated 2012):

B1: Gαolf: wild type G protein α subunit Gαolf (mouse), SEQ ID NO: 2 (protein, listed as Mus musculus)
chain: MGCLGNSSKTAEDQGVDEKERREANKKIEKQLQKERLAYKATHRLLLLGAGESGKSTIVKQMRILHVNGFNPEEKKQKILDIRKNVKDAIVTIVSAMSTIIPPVPLANPENQFRSDYIKSIAPITDFEYSQEFFDHVKKLWDDEGVKACFERSNEYQLIDCAQYFLERIDSVSLVDYTPTDQDLLRCRVLTSGIFETRFQVDKVNFHMFDVGGQRDERRKWIQCFNDVTAIIYVAACSSYNMVIREDNNTNRLRESLDLFESIWNNRWLRTISIILFLNKQDMLAEKVLAGKSKIEDYFPEYANYTVPEDATPDAGEDPKVTRAKFFIRDLFLRISTATGDGKHYCYPHFTCAVDTENIRRVFNDCRDIIQRMHLKQYELL
modifications: (1)..(381) bulbus olfactorius of mouse

Key:
β1 adrenergic receptor = target: T1, β1 adrenergic receptor (Rattus norvegicus, UniProt P18090); assay: Patch-clamp agonist concentration dependence in Gi/olf94 chimeric G protein expressing cells (present invention); type: cell-based; conditions: for Change Level in Current Density (relative value): Table 14, 100 = 30000 nM dopamine, 100 nM dobutamine, 30 nM ISO
T1 construct: expressed in transfected cells; host or cells: HEK293T
T1 sequence (P18090 whole entry): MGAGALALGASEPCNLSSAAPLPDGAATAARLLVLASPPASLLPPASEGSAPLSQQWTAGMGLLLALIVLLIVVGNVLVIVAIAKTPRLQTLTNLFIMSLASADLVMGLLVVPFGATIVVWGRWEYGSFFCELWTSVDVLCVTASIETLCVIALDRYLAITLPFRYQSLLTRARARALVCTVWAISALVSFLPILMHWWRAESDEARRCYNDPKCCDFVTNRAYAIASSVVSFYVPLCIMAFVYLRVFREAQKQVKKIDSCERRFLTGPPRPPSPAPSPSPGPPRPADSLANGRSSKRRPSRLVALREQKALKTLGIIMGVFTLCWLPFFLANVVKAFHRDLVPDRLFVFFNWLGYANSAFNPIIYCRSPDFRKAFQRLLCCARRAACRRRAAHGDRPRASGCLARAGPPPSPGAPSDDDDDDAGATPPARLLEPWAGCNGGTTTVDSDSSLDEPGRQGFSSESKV
Procedure: Membrane current of the chimeric G protein expressing cell was measured by using a patch-clamp technique. […] Procedure for the measurements is shown below.
Measurement operations were conducted under a microscope (“1X71” manufactured by Olympus, Inc.). A liquid circulation chamber was mounted on the silver/silver chloride (Ag/AgCl) electrode. A sample for measurement was placed in the liquid circulation chamber filled with Tyroad's buffer. At a state where a single cell was in contact with the tip of a glass electrode, negative pressure was applied in the glass electrode. The portion of a cell membrane in contact with the tip of the glass electrode was torn to form an equivalent circuit (Whole-cell mode). The electric potential difference between inside and outside a cell was kept at 0 mV by using a patch clamp amplifier (“EPC10” manufactured by HEKA Instrument Inc.). Under this mode, the Tyroad's buffer in the liquid circulation chamber was substituted with a GIRK buffer.
The GIRK buffer in the liquid circulation chamber was substituted with a sample solution.
Chemical substance detection sensitivity according to the present invention was compared to detection sensitivity of cAMP technique, which is a commonly used chemical substance detection technique. The cAMP technique is a technique for measuring an increase in cAMP concentration in an intracellular fluid caused by an interaction between an agonist and a receptor, and quantifying the concentration of the agonist based on the measured value. More particularly, cells expressing β1 adrenergic receptor and potassium ion channel Kir3.1 (F137S) were placed in contact with a buffer solution containing ISO, and then were homogenized. The concentration of cAMP contained in the obtained homogenate liquid was measured. The concentration measurement was performed by using a measurement kit (cyclic AMP EIA kit; Assay Designs, Inc.). The kit measures cAMP concentration by utilizing competitive EIA (competitive enzyme immunoassay). A cAMP concentration obtained when the ISO concentration inside of a buffer solution was 1000 nM was represented as 100 as a standard, and cAMP concentrations at respective ISO concentrations were calculated as ratios with regard to this standard cAMP concentration. […] A change value in current density obtained when the ISO concentration was 30 nM was represented as 100 as a standard, and change values in current density at respective ISO concentrations were calculated as ratios with regard to the standard change value.

[1] = system: β1 adrenergic receptor / potassium ion channel Kir3.1 (F137S) in HEK293T cells; assay: Patch-clamp membrane current of G protein expressing HEK293T cells with and without ISO; type: cell-based, rat (receptor), mouse (Kir3.1)
Procedure: A cell was obtained that expressed a chimeric G protein, a potassium ion channel, and a chemical substance receptor (hereinafter, the cell is referred to as “chimeric G protein expressing cell”). An electrophysiological activity of the chimeric G protein expressing cell was measured by using patch-clamp method. The chimeric G protein expressing cell was prepared in accordance with the following procedure. First, a chimeric G protein expression plasmid, a potassium ion channel expression plasmid, and a chemical substance receptor expression plasmid were prepared. Next, the three expression plasmids were transfected into HEK293T cells, and were then expressed inside the cells.
A chimeric G protein comprising Gi/olf13 as a chimeric Gα subunit was employed. The mutated potassium ion channel Kir3.1 (F137S) was employed as a potassium ion channel. The β1 adrenergic receptor was employed as a chemical substance receptor.
The plasmid (βAR), the plasmid Kir3.1 (F137S), and the plasmid (Gi/olf13) were expressed in HEK293T cells. The procedure for the expression is shown below. Approximately 80% confluent cultured HEK293T cells were collected, and plated on a new culture petri dish. The passage number of the used cells was not more than ten generations. DMEM (supplemented with 10% FBS (fetal bovine serum) and streptomycin) was used. After culturing the cells for 24 hours, the cells were transfected with the plasmids by using a transfection reagent. The cells were cultured for 48 hours after being transfected with the plasmids, and thereby chimeric G protein expressing cells were prepared.
Membrane current of the chimeric G protein expressing cell was measured by using a patch-clamp technique. Measurements were conducted with and without supplying isoproterenol (hereinafter, referred to as “ISO”) which was a β1 adrenergic receptor agonist. Procedure for the measurements is shown below.
The chimeric G protein expressing cells were plated on coverslips (3 mm×10 mm; Matsunami Glass Ind., Ltd.,) treated with PLL (poly-L-lysine) and kept still for four hours to obtain samples for the measurements.
Procedure for preparing glass electrodes used for the measurements is described below. […]
Measurement operations were conducted under a microscope (“1X71” manufactured by Olympus, Inc.). […] Pulse potentials (electric potential: −50 mV; duration time: 100 mS) were applied every 10 seconds, and membrane currents obtained upon the application were measured.
Next, membrane currents obtained when isoproterenol (hereinafter, abbreviated as “ISO”) which is a β1 adrenergic receptor agonist was brought into contact with the cell were measured in accordance with the following procedure. […]

Molecule	Change Level in Current Density (relative value) (β1 adrenergic receptor; agonist 0.3 nM)	Change Level in Current Density (relative value) (β1 adrenergic receptor; agonist 3 nM)	Change Level in Current Density (relative value) (β1 adrenergic receptor; agonist 30 nM)	Change Level in Current Density (relative value) (β1 adrenergic receptor; agonist 300 nM)	Change Level in Current Density (relative value) (β1 adrenergic receptor; agonist 3000 nM)	EC50 (β1 adrenergic receptor; change in current density, Gi/olf94 cells, read-out: half maximal effective concentration (EC50)) [nM]	change level of current caused by addition of ISO ([1]; Reference Example)	current value when ISO was supplied ([1]; Reference Example, FIG. 26-28, with ISO)	Change Level in Current Density ([1]; Table 11, difference of current density without vs with ISO 30 nM, pulse −50 mV, β1 adrenergic receptor + Kir3.1 (F137S) co-expressed) [pA/pF]	Current Change Level ([1]; Table 15, Reference Example, change on contact with ISO) [nA]
CC(CCc1ccc(O)cc1)NCCc1ccc(O)c(O)c1 (stereo not shown) [dobutamine]	0.67	6.80	20.59	99.15	100	50				
B1							small	approximately 0.5 nA	−22.59	−0.37
